Laboratory results published in patent US9237747B2, “Herbicidal compositions comprising 4-amino-3-chloro-5-fluoro-6-(4-chloro-2-fluoro-3-methoxyphenyl) pyridine-2-carboxylic acid or a derivative thereof and insecticides” (priority 2013, dated 2016).

What was measured:
[1] = test system: LEFCH; test: In-water applied weed control, transplanted paddy rice (greenhouse); type: in vivo, Leptochloa chinensis
Protocol: Weed seeds or nutlets of the desired test plant species were planted in puddled soil (mud) prepared by mixing a shredded, non-sterilized mineral soil (50.5 percent silt, 25.5 percent clay, and 24 percent sand, with a pH of about 7.6 and an organic matter content of about 2.9 percent) and water at a 1:1 volumetric ratio. The prepared mud was dispensed in 365 mL aliquots into 16-ounce (oz.) non-perforated plastic pots with a surface area of 86.59 square centimeters (cm^2) leaving a headspace of 3 centimeters (cm) in each pot. Rice seeds were planted in Sun Gro MetroMix® 306 planting mixture, which typically has a pH of 6.0 to 6.8 and an organic matter content of about 30 percent, in plastic plug trays. Seedlings at the second or third leaf stage of growth were transplanted into 860 mL of mud contained in 32-oz. non-perforated plastic pots with a surface area of 86.59 cm^2 4 days prior to herbicide application. The paddy was created by filling the headspace of the pots with 2.5 to 3 cm of water. When required to ensure good germination and healthy plants, a fungicide treatment and/or other chemical or physical treatment was applied. The plants were grown for 4-22 days in a greenhouse with an approximate 14 h photoperiod which was maintained at about 29° C. during the day and about 26° C. during the night. Nutrients were added as Osmocote® (17:6:10, N:P:K+minor nutrients) at 2 grams (g) per 16-oz. pot and 4 g per 32-oz. pot. Water was added on a regular basis to maintain the paddy flood, and supplemental lighting was provided with overhead metal halide 1000-Watt lamps as necessary. The plants were employed for testing when they reached the first through fourth true leaf stage. […]
Treatment requirements for each compound or herbicidal component were calculated based upon the rates being tested, the concentration of active ingredient or acid equivalent in the formulation, an application volume of 2 mL per component per pot, and an application area of 86.59 cm^2 per pot.
For formulated compounds, a measured amount was placed in an individual 100 or 200 mL glass vial and was dissolved in a volume of 1.25% (v/v) AgriDex® crop oil concentrate to obtain application solutions. […]
The treated plants and control plants were placed in a greenhouse as described above and water was added as needed to maintain a paddy flood. After approximately 3 weeks the condition of the test plants as compared with that of the untreated plants was determined visually and scored on a scale of 0 to 100 percent where 0 corresponds to no injury or growth inhibition and 100 corresponds to complete kill. […]

[2] = test system: BRAPP; test: Postemergence foliar-applied weed control, direct-seeded rice (greenhouse); type: in vivo, Brachiaria platyphylla
Description: Seeds or nutlets of the desired test plant species were planted in a soil matrix prepared by mixing a loam or sandy loam soil (e.g., 28.6 percent silt, 18.8 percent clay, and 52.6 percent sand, with a pH of about 5.8 and an organic matter content of about 1.8 percent) and calcareous grit in an 80 to 20 ratio. The soil matrix was contained in plastic pots with a volume of 1 quart and a surface area of 83.6 square centimeters (cm^2). When required to ensure good germination and healthy plants, a fungicide treatment and/or other chemical or physical treatment was applied. The plants were grown for 8-22 days in a greenhouse with an approximate 14 hour (h) photoperiod which was maintained at about 29° C. during the day and 26° C. during the night. Nutrients (Peters Excel® 15-5-15 5-Ca 2-Mg and iron chelate) were applied in the irrigation solution as needed and water was added on a regular basis. Supplemental lighting was provided with overhead metal halide 1000-Watt lamps as necessary. The plants were employed for testing when they reached the first through fourth true leaf stage.
Treatments consisted of the acid or esters of 4-amino-3-chloro-6-(4-chloro-2-fluoro-3-methoxyphenyl)-5-fluoropyridine-2-carboxylic acid (Compound A), each formulated as an SC (suspension concentrate), and various insecticidal components alone and in combination. Forms of compound A were applied on an acid equivalent basis.
Treatment requirements were calculated based upon the rates being tested, the concentration of active ingredient or acid equivalent in the formulation, and a 12 milliliter (mL) application volume at a rate of 187 liters per hectare (L/ha).
For treatments comprised of formulated compounds, measured amounts of compounds were placed individually in 25 mL glass vials and diluted in a volume of 1.25% volume per volume (v/v) Agri-Dex® crop oil concentrate to obtain 12× stock solutions. […] Application solutions were prepared by adding an appropriate amount of each stock solution (e.g., 1 mL) and diluted to the appropriate final concentrations with the addition of […] of an aqueous mixture of 1.25% (v/v) crop oil concentrate so that the final spray solutions contained 1.25+/−0.05% (v/v) crop oil concentrate.
As required, additional water and/or 97:3 v/v acetone/DMSO was added to individual application solutions so that the final acetone and DMSO concentrations of the application solutions being compared were 8.1% and 0.25%, respectively.
All stock solutions and applications solutions were visually inspected for compound compatibility prior to application. Spray solutions were applied to the plant material with an overhead Mandel track sprayer equipped with 8002E nozzles calibrated to deliver 187 L/ha over an application area of 0.503 square meters (m^2) at a spray height of 18 to 20 inches (46 to 50 cm) above average plant canopy height. Control plants were sprayed in the same manner with the solvent blank.
The treated plants and control plants were placed in a greenhouse as described above and watered by sub-irrigation to prevent wash-off of the test compounds. After approximately 3 weeks, the condition of the test plants as compared to that of the untreated plants was determined visually and scored on a scale of 0 to 100 percent where 0 corresponds to no injury or growth inhibition and 100 corresponds to complete kill.
Colby's equation was used to determine the herbicidal effects expected from the mixtures (Colby, S. R. Calculation of the synergistic and antagonistic response of herbicide combinations. Weeds 1967, 15, 20-22.).
The following equation was used to calculate the expected activity of mixtures containing two active ingredients, A and B: Expected=A+B−(A×B/100)

Row | SMILES | Visual Weed Control (%) - 19 DAA LEFCH Obs ([1]; 150 g ai/ha alone) | Visual Weed Control (%) - 20 DAA BRAPP Obs ([2]; 4.38 g ae/ha alone) | Visual Weed Control (%) - 20 DAA BRAPP Obs ([2]; 8 g ae/ha alone) | Visual Weed Control (%) - 21 DAA BRAPP Obs ([2]; 8 g ae/ha alone) | Visual Weed Control (%) - 20 DAA BRAPP Obs ([2]; 8.75 g ae/ha alone) | Visual Weed Control (%) - 20 DAA BRAPP Obs ([2]; 17.5 g ae/ha alone) | Visual Weed Control (%) - 19 DAA LEFCH Obs ([1]; 8 g ae/ha alone) | Visual Weed Control (%) - 19 DAA LEFCH Obs ([1]; 16 g ae/ha alone) | Visual Weed Control (%) - 19 DAA LEFCH Obs ([1]; 32 g ae/ha alone)
1 | CC(c1ccc(C(F)(F)F)nc1)S(C)(=O)=NC#N (stereo not shown) [Sulfoxaflor, N-[methyloxido[1-[6-(trifluoromethyl)-3-pyridinyl]ethyl]-λ^4-sulfanylidene]cyanamide] | 0% |  |  |  |  |  |  |  | 
2 | COc1c(Cl)ccc(-c2nc(C(=O)O)c(Cl)c(N)c2F)c1F [Compound A Acid, 4-amino-3-chloro-6-(4-chloro-2-fluoro-3-methoxyphenyl)-5-fluoropyridine-2-carboxylic acid] |  | 70% |  |  |  |  |  |  | 
3 | COc1c(Cl)ccc(-c2nc(C(=O)OCc3ccccc3)c(Cl)c(N)c2F)c1F [Compound A Benzyl Ester] |  | 75% | 55% | 70% | 75% | 95% | 3% | 8% | 10%
